One test addresses PHD2181-417 (Homo sapiens (Human), UniProt Q9GZT9). Briefly: PHD enzymatic assay ([14C]-succinic acid production). It is filed as biochemical. The note with it: purified PHD2181-417, HIF-1α peptide substrate, 30 min pre-incubation; average of results. Put shortly:
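Recombinant human PHD2 (aa 181-417, E. coli-expressed, tags cleaved) with peptide substrate (10 μM) and [5-14C]-2-oxoglutarate in Tris pH 7.5 with catalase, DTT and ascorbate, 10 min reaction after 30 min compound pre-incubation; compounds at 100 μM final, 1% DMSO. [14C]-succinate separated by DNP precipitation and beta-counted; IC50 from three-parameter logistic fit.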

For the next test, the system named is HIF1-α, Hela cells. Nature of the test: Cellular assay for HIF1-α in Hela cells. It is filed as cell-based. The note with it: Homo sapiens, 100 μM compound, 6 hours, percent of HIF stimulation relative to assay control compound 7-[(4-Chloro-phenyl)-(5-methyl-isoxazol-3-ylamino)-methyl]-quinolin-8-ol. The procedure: Cellular Assay for HIF1-α
Hela cells (ATCC, Manassas, Va.) were plated in 96-well plates at 20,000 cells per well in 100 μl of DMEM containing 10% fetal bovine serum, 1% non-essential amino acids, 50 IU/mL of penicillin and 50 μg/mL of streptomycin (all cell culture reagents from Invitrogen, Carlsbad, Calif.). 24 hours after plating, changed media to 100 ul of DMEM without 10% fetal bovine serum, 1.1 μl of the stock solution for each compound was added and incubated for 6 hours. All compounds were tested with a final compound concentration of 100 μM. The supernatant was removed and the cells were lysed in 55 μl of MSD lysis buffer containing protease inhibitors. 50 μl of the cell lysate was then transferred to a blocked MSD human HIF-1α detection plate (Meso-Scale Discovery, Gaithersburg, Md., as per manufacturers protocol), and incubated at room temperature on an orbital shaker for 2 hour. After 3 washes in PBS, 25 μl of 20 nM anti-HIF1α a detection antibody was added and incubated for 1 hour at room temperature on an orbital shaker. After 3 washes in PBS, 150 μl of 1× read buffer was added and the plate was then read on a MSD SECTOR instrument. Data was analyzed by determining the percent of HIF stimulation in the presence of 100 μM compound relative to an assay control compound, 7-[(4-Chloro-phenyl)-(5-methyl-isoxazol-3-ylamino)-methyl]-quinolin-8-ol.

Test [1] concerns Erythropoietin secretion, Hep-3B cells. Briefly: Cellular assay: EPO secretion in Hep-3B cells. In kind it is cell-based. The following applies: Homo sapiens, Hep3B, 100 μM compound, 24 hours, percent of EPO secretion relative to assay control compound 7-[(4-Chloro-phenyl)-(5-methyl-isoxazol-3-ylamino)-methyl]-quinolin-8-ol, read-out: Cellular % EPO Stimulation. Put shortly:
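Compounds at 100 μM final were added to Hep-3B cells 24 h after plating and left for 24 h. Secreted EPO in supernatant measured by MSD electrochemiluminescence immunoassay. Reported as percent EPO secretion relative to an 8-hydroxyquinoline reference control compound.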

Chain of PHD2181-417 (Q9GZT9 181-417): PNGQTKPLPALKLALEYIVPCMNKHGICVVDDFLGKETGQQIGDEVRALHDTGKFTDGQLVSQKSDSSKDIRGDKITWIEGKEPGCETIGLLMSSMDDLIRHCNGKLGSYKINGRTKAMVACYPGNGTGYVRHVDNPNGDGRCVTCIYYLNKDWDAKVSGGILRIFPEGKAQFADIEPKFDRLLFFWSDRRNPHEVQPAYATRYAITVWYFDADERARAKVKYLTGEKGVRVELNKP

As for `Cc1cccc(C)c1Oc1cc2c(N3CCCN(C)CC3)nc(-n3cc(C(=O)O)cn3)nc2cc1F` [Example 17, 1-(6-(2,6-Dimethylphenoxy)-7-fluoro-4-(4-methyl-1,4-diazepan-1-yl)quinazolin-2-yl)-1H-pyrazole-4-carboxylic acid], the “Enzyme pIC50” value at PHD2181-417 was found to be 6.7. Also, the activation at 100 µM in the test with HIF1-α, Hela cells is 47%.

Take `Cc1cccc(C)c1Oc1cc2c(N3CCSCC3)nc(-n3cc(C(=O)O)cn3)nc2cc1F` [Example 18, 1-(6-(2,6-Dimethylphenoxy)-7-fluoro-4-thiomorpholinoquinazolin-2-yl)-1H-pyrazole-4-carboxylic acid]: the “Enzyme pIC50” value on PHD2181-417 is 7.0. This molecule also displayed an activation at 100 µM with HIF1-α, Hela cells of 15%.

With `Cc1cccc(C)c1Oc1cc2c(N3CCC(O)CC3)nc(-n3cc(C(=O)O)cn3)nc2cc1F` [Example 19, 1-(6-(2,6-Dimethylphenoxy)-7-fluoro-4-(4-hydroxypiperidin-1-yl)quinazolin-2-yl)-1H-pyrazole-4-carboxylic acid], at PHD2181-417, the “Enzyme pIC50” value was found to be 6.9. The same molecule gave an activation at 100 µM in the test on HIF1-α, Hela cells of 140%.

Turning to `CC(=O)NC1CCN(c2nc(-n3cc(C(=O)O)cn3)nc3cc(F)c(Oc4c(C)cccc4C)cc23)CC1` [Example 21, 1-(4-(4-Acetamidopiperidin-1-yl)-6-(2,6-dimethylphenoxy)-7-fluoroquinazolin-2-yl)-1H-pyrazole-4-carboxylic acid], on PHD2181-417, the “Enzyme pIC50” value stood at 6.9. This molecule also displayed an activation at 100 µM with HIF1-α, Hela cells of 62%.

With `O=C(O)c1cnn(-c2nc(Nc3ccccc3Cl)c3cc(C4CCCCC4)ccc3n2)c1` [Example 29, 1-(4-((2-Chlorophenyl)amino)-6-cyclohexylquinazolin-2-yl)-1H-pyrazole-4-carboxylic acid], the “Enzyme pIC50” value on PHD2181-417 came out at 7.1. In the test on HIF1-α, Hela cells, this molecule had an activation at 100 µM of 7.8%.

With `N#CC1CCN(c2nc(-n3cc(C(=O)O)cn3)nc3ccc(C4CCCCC4)cc23)CC1` [Example 30, 1-(4-(4-Cyanopiperidin-1-yl)-6-cyclohexylquinazolin-2-yl)-1H-pyrazole-4-carboxylic acid], at PHD2181-417, the “Enzyme pIC50” value amounted to 6.9. Besides, the activation at 100 µM in the test on HIF1-α, Hela cells was 77%.

For `O=C(O)c1cnn(-c2nc(N3CCC(F)CC3)c3cc(C4CCCCC4)ccc3n2)c1` [Example 31, 1-(6-Cyclohexyl-4-(4-fluoropiperidin-1-yl)quinazolin-2-yl)-1H-pyrazole-4-carboxylic acid], on PHD2181-417, the “Enzyme pIC50” value is 7.1. In addition, the activation at 100 µM with HIF1-α, Hela cells was 34%.

As for `CC(C)(C)Nc1nc(-n2cc(C(=O)O)cn2)nc2ccc(C3CCCCC3)cc12` [Example 36, 1-(4-(tert-Butylamino)-6-cyclohexylquinazolin-2-yl)-1H-pyrazole-4-carboxylic acid], the “Enzyme pIC50” value on PHD2181-417 was 6.8. This molecule yielded an activation at 100 µM in the test with HIF1-α, Hela cells of 23%.

For the molecule `O=C(O)c1cnn(-c2nc(NCC3CCCCC3)c3cc(C4CCCCC4)ccc3n2)c1` [Example 39, 1-(6-Cyclohexyl-4-((cyclohexylmethyl)amino)quinazolin-2-yl)-1H-pyrazole-4-carboxylic acid], the “Enzyme pIC50” value on PHD2181-417 amounted to 6.9. The molecule also gave an activation at 100 µM in the test on HIF1-α, Hela cells of 6.1%.

As to `CS(=O)(=O)Nc1nc(-n2cc(C(=O)O)cn2)nc2ccc(C3CCCCC3)cc12` [Example 40, 1-(6-Cyclohexyl-4-(methylsulfonamido)quinazolin-2-yl)-1H-pyrazole-4-carboxylic acid], on PHD2181-417, the “Enzyme pIC50” value came to 6.6. In the test on HIF1-α, Hela cells, this molecule returned an activation at 100 µM of 6.7%.

As for `O=C(O)c1cnn(-c2nc(N3CCCC3)c3cc(-c4ccccc4)ccc3n2)c1` [Example 43, 1-(6-Phenyl-4-(pyrrolidin-1-yl)quinazolin-2-yl)-1H-pyrazole-4-carboxylic acid], the “Enzyme pIC50” value on PHD2181-417 was found to be 7.3. In the test with HIF1-α, Hela cells, the activation at 100 µM stood at 57%.

As for `O=C(O)c1cnn(-c2nc(Nc3ccccc3)c3cc(-c4ccccc4)ccc3n2)c1` [Example 44, 1-(6-Phenyl-4-(phenylamino)quinazolin-2-yl)-1H-pyrazole-4-carboxylic acid], at PHD2181-417, the “Enzyme pIC50” value came out at 7.1. In the test with HIF1-α, Hela cells, this molecule had an activation at 100 µM of 22%.

On to `O=C(O)c1cnn(-c2nc(Nc3ccccc3Cl)c3cc(-c4ccccc4)ccc3n2)c1` [Example 47, 1-(4-((2-Chlorophenyl)amino)-6-phenylquinazolin-2-yl)-1H-pyrazole-4-carboxylic acid], for which, at PHD2181-417, the “Enzyme pIC50” value was found to be 6.6. The activation at 100 µM with HIF1-α, Hela cells was determined as 10%.

As for `O=C(O)c1cnn(-c2nc(N3CCCCCC3)c3cc(-c4ccccc4)ccc3n2)c1` [Example 48, 1-(4-(Azepan-1-yl)-6-phenylquinazolin-2-yl)-1H-pyrazole-4-carboxylic acid], at PHD2181-417, the “Enzyme pIC50” value is listed as 7.2. For the same molecule, the activation at 100 µM with HIF1-α, Hela cells was found to be 23%.

For `O=C(O)c1cnn(-c2nc(NCC3CCCCC3)c3cc(-c4ccccc4)ccc3n2)c1` [Example 49, 1-(4-((Cyclohexylmethyl)amino)-6-phenylquinazolin-2-yl)-1H-pyrazole-4-carboxylic acid], on PHD2181-417, the “Enzyme pIC50” value was determined as 6.9. For the same molecule, the activation at 100 µM in the test with HIF1-α, Hela cells amounted to 3.8%.

As for `N#CNc1nc(-n2cc(C(=O)O)cn2)nc2ccc(-c3ccccc3)cc12` [Example 50, 1-(4-Cyanamido-6-phenylquinazolin-2-yl)-1H-pyrazole-4-carboxylic acid], the “Enzyme pIC50” value on PHD2181-417 was found to be 7.1. Further, in the test with HIF1-α, Hela cells, the activation at 100 µM came to 9.6%.

In the case of `O=C(O)c1cnn(-c2nc(NC3CC3)c3cc(-c4ccccc4)ccc3n2)c1` [Example 51, 1-(4-(Cyclopropylamino)-6-phenylquinazolin-2-yl)-1H-pyrazole-4-carboxylic acid], on PHD2181-417, the “Enzyme pIC50” value was 6.5. Further, the activation at 100 µM in the test with HIF1-α, Hela cells was determined as 40%.

Consider `CC(C)(C)Nc1nc(-n2cc(C(=O)O)cn2)nc2ccc(-c3ccccc3)cc12` [Example 52, 1-(4-(tert-Butylamino)-6-phenylquinazolin-2-yl)-1H-pyrazole-4-carboxylic acid], for which the “Enzyme pIC50” value on PHD2181-417 came to 6.5. In the test on HIF1-α, Hela cells, the activation at 100 µM was 37%.

As for `Nc1nc(-n2cc(C(=O)O)cn2)nc2ccc(-c3ccccc3)cc12` [Example 53, 1-(4-Amino-6-phenylquinazolin-2-yl)-1H-pyrazole-4-carboxylic acid], on PHD2181-417, the “Enzyme pIC50” value came out at 7.0. This molecule registered an activation at 100 µM in the test on HIF1-α, Hela cells of 16%.

As for `CC(=O)NC1CCN(c2nc(-n3cc(C(=O)O)cn3)nc3ccc(-c4ccccc4)cc23)CC1` [Example 55, 1-(4-(4-Acetamidopiperidin-1-yl)-6-phenylquinazolin-2-yl)-1H-pyrazole-4-carboxylic acid], at PHD2181-417, the “Enzyme pIC50” value turned out to be 6.7. Further, the activation at 100 µM in the test on HIF1-α, Hela cells was found to be 28%.

For `O=C(O)c1cnn(-c2nc(N3CCCCCC3)c3ccc(Oc4ccccc4)cc3n2)c1` [Example 87, 1-(4-(Azepan-1-yl)-7-phenoxyquinazolin-2-yl)-1H-pyrazole-4-carboxylic acid], the activation at 100 µM in the test with HIF1-α, Hela cells was 20%.

The molecule `CCCN(CCC)c1nc(-n2cc(C(=O)O)cn2)nc2cc(Oc3ccccc3)ccc12` [Example 93, 1-(4-(Dipropylamino)-7-phenoxyquinazolin-2-yl)-1H-pyrazole-4-carboxylic acid] had an activation at 100 µM in the test with HIF1-α, Hela cells of 43%.

For `CCN(C)c1nc(-n2cc(C(=O)O)cn2)nc2ccc(C(C)C)cc12` [Example 189, 1-(6-isopropyl-4-(ethyl(methyl)amino)quinazolin-2-yl)-1H-pyrazole-4-carboxylic acid], the “Enzyme pIC50” value on PHD2181-417 turned out to be 6.8. The activation at 100 µM in test [1] worked out at 36%.
